Assay results taken from ChEMBL document CHEMBL3112450, “Synthesis and in vitro antitumor evaluation of primary amine substituted quinazoline linked benzimidazole” (Bioorg Med Chem Lett, 2014).

Legend:
Assay type in all cases: functional
[1] = Cytotoxicity against human Hs578T cells assessed as cell growth at 10^-5 M after 48 hrs by SRB assay; details: Hs-578T, read-out: Activity
NCI-H522 [2] = assay: Cytotoxicity against human NCI-H522 cells assessed as cell growth at 10^-5 M after 48 hrs by SRB assay; details: NCI-H522, 48 h, read-out: Activity
NCI-H460 [3] = assay: Cytotoxicity against human NCI-H460 cells assessed as cell growth at 10^-5 M after 48 hrs by SRB assay; details: NCI-H460, 48 h, read-out: Activity
K562 = assay: Cytotoxicity against human K562 cells assessed as cell growth at 10^-5 M after 48 hrs by SRB assay; details: K562, 48 h, read-out: Activity
HL-60(TB) [4] = assay: Cytotoxicity against human HL-60(TB) cells assessed as cell growth at 10^-5 M after 48 hrs by SRB assay; details: HL-60, 48 h, read-out: Activity
MOLT-4 [5] = assay: Cytotoxicity against human MOLT4 cells assessed as cell growth at 10^-5 M after 48 hrs by SRB assay; details: MOLT-4, 48 h, read-out: Activity
[6] = Cytotoxicity against human OVCAR4 cells assessed as cell growth at 10^-5 M after 48 hrs by SRB assay; details: OVCAR-4, 48 h, read-out: Activity
DU-145 = assay: Cytotoxicity against human DU145 cells assessed as cell growth at 10^-5 M after 48 hrs by SRB assay; details: DU-145, 48 h, read-out: Activity
SW-620 = assay: Cytotoxicity against human SW620 cells assessed as cell growth at 10^-5 M after 48 hrs by SRB assay; details: SW-620, 48 h, read-out: Activity
A549 = assay: Cytotoxicity against human A549 cells assessed as cell growth at 10^-5 M after 48 hrs by SRB assay; details: A549, 48 h, read-out: Activity
SNB-19 = assay: Cytotoxicity against human SNB19 cells assessed as cell growth at 10^-5 M after 48 hrs by SRB assay; details: SNB-19, 48 h, read-out: Activity
CAKI-1 = assay: Cytotoxicity against human Caki1 cells assessed as cell growth at 10^-5 M after 48 hrs by SRB assay; details: CAKI-1, 48 h, read-out: Activity
[7] = Cytotoxicity against human OVCAR5 cells assessed as cell growth at 10^-5 M after 48 hrs by SRB assay; details: OVCAR-5, 48 h, read-out: Activity
HT-29 [8] = assay: Cytotoxicity against human HT-29 cells assessed as cell growth at 10^-5 M after 48 hrs by SRB assay; details: HT-29, 48 h, read-out: Activity
HOP-62 [9] = assay: Cytotoxicity against human HOP62 cells assessed as cell growth at 10^-5 M after 48 hrs by SRB assay; details: HOP-62, 48 h, read-out: Activity
[10] = Cytotoxicity against human UO31 cells assessed as cell growth at 10^-5 M after 48 hrs by SRB assay; details: UO-31, 48 h, read-out: Activity
T47D = assay: Cytotoxicity against human T47D cells assessed as cell growth at 10^-5 M after 48 hrs by SRB assay; details: read-out: Activity
MDA-MB-435 = assay: Cytotoxicity against human MDA-MB-435 cells assessed as cell growth at 10^-5 M after 48 hrs by SRB assay; details: MDA-MB-435, 48 h, read-out: Activity
M14 [11] = assay: Cytotoxicity against human M14 cells assessed as cell growth at 10^-5 M after 48 hrs by SRB assay; details: M14, 48 h, read-out: Activity
786-0 = assay: Cytotoxicity against human 786-0 cells assessed as cell growth at 10^-5 M after 48 hrs by SRB assay; details: 786-0, 48 h, read-out: Activity
KM12 = assay: Cytotoxicity against human KM12 cells assessed as cell growth at 10^-5 M after 48 hrs by SRB assay; details: KM12, 48 h, read-out: Activity
Malme-3M = assay: Cytotoxicity against human MALME-3M cells assessed as cell growth at 10^-5 M after 48 hrs by SRB assay; details: read-out: Activity
HOP-62 [12] = assay: Cytotoxicity against human HOP62 cells after 48 hrs by SRB assay; details: HOP-62, 48 h
[13] = Cytotoxicity against human OVCAR5 cells assessed as cell growth at 10^-7 M after 48 hrs by SRB assay; details: OVCAR-5, 48 h, read-out: Activity
UACC-62 = assay: Cytotoxicity against human UACC62 cells assessed as cell growth at 10^-4 M after 48 hrs by SRB assay; details: UACC-62, 48 h, read-out: Activity
MOLT-4 [14] = assay: Cytotoxicity against human MOLT4 cells assessed as cell growth at 10^-4 M after 48 hrs by SRB assay; details: MOLT-4, 48 h, read-out: Activity
[15] = Cytotoxicity against human UO31 cells assessed as cell growth at 10^-8 M after 48 hrs by SRB assay; details: UO-31, 48 h, read-out: Activity
MDA-MB-231 = assay: Cytotoxicity against human MDA-MB-231 cells assessed as cell growth at 10^-7 M after 48 hrs by SRB assay; details: MDA-MB-231, 48 h, read-out: Activity
A498 [16] = assay: Cytotoxicity against human A498 cells assessed as cell growth at 10^-8 M after 48 hrs by SRB assay; details: A498, 48 h, read-out: Activity
M14 [17] = assay: Cytotoxicity against human M14 cells assessed as cell growth at 10^-7 M after 48 hrs by SRB assay; details: M14, 48 h, read-out: Activity
SR = assay: Cytotoxicity against human SR cells assessed as cell growth at 10^-8 M after 48 hrs by SRB assay; details: read-out: Activity
MOLT-4 [18] = assay: Cytotoxicity against human MOLT4 cells assessed as cell growth at 10^-6 M after 48 hrs by SRB assay; details: MOLT-4, 48 h, read-out: Activity
MDA-MB-468 = assay: Cytotoxicity against human MDA-MB-468 cells assessed as cell growth at 10^-4 M after 48 hrs by SRB assay; details: MDA-MB-468, 48 h, read-out: Activity
A498 [19] = assay: Cytotoxicity against human A498 cells assessed as cell growth at 10^-7 M after 48 hrs by SRB assay; details: A498, 48 h, read-out: Activity
HT-29 [20] = assay: Cytotoxicity against human HT-29 cells assessed as cell growth at 10^-8 M after 48 hrs by SRB assay; details: HT-29, 48 h, read-out: Activity
NCI-H460 [21] = assay: Cytotoxicity against human NCI-H460 cells after 48 hrs by SRB assay; details: NCI-H460, 48 h
HOP-92 = assay: Cytotoxicity against human HOP92 cells assessed as cell growth at 10^-8 M after 48 hrs by SRB assay; details: HOP-92, 48 h, read-out: Activity
HL-60(TB) [22] = assay: Cytotoxicity against human HL-60(TB) cells assessed as cell growth at 10^-8 M after 48 hrs by SRB assay; details: HL-60, 48 h, read-out: Activity
HL-60(TB) [23] = assay: Cytotoxicity against human HL-60(TB) cells assessed as cell growth at 10^-6 M after 48 hrs by SRB assay; details: HL-60, 48 h, read-out: Activity
NCI-H522 [24] = assay: Cytotoxicity against human NCI-H522 cells after 48 hrs by SRB assay; details: NCI-H522, 48 h

Structure (SMILES): C=CCn1c(C)nc2ccc(Nc3nc(NCCO)nc4ccccc34)cc21
- growth at 10 µM [1]: 91.5%
- growth at 10 µM (NCI-H522 [2]): 101%
- growth at 10 µM (NCI-H460 [3]): 103%
- growth at 10 µM (K562): 92.2%
- growth at 10 µM (HL-60(TB) [4]): 114%
- growth at 10 µM (MOLT-4 [5]): 96.7%
- growth at 10 µM [6]: 88.4%
- growth at 10 µM (DU-145): 107%
- growth at 10 µM (SW-620): 97.7%
- growth at 10 µM (A549): 99.9%
- growth at 10 µM (SNB-19): 93.9%
- growth at 10 µM (CAKI-1): 99%
- growth at 10 µM [7]: 107%
- growth at 10 µM (HT-29 [8]): 103%
- growth at 10 µM (HOP-62 [9]): 97.6%
- growth at 10 µM [10]: 92.6%
- growth at 10 µM (T47D): 95.8%
- growth at 10 µM (MDA-MB-435): 102%
- growth at 10 µM (M14 [11]): 111%
- growth at 10 µM (786-0): 95.7%
- growth at 10 µM (KM12): 102%
- growth at 10 µM (Malme-3M): 111%

Structure (SMILES): C=CCn1c(C)nc2cc(Nc3nc(NCCO)nc4ccccc34)ccc21
- growth at 10 µM [1]: 77.5%
- growth at 10 µM (NCI-H522 [2]): 88.1%
- growth at 10 µM (NCI-H460 [3]): 96%
- growth at 10 µM (K562): 64.1%
- growth at 10 µM (HL-60(TB) [4]): 93.8%
- growth at 10 µM (MOLT-4 [5]): 56.7%
- growth at 10 µM [6]: 65.2%
- growth at 10 µM (DU-145): 98.8%
- growth at 10 µM (SW-620): 68.2%
- growth at 10 µM (A549): 92.3%
- growth at 10 µM (SNB-19): 90.2%
- growth at 10 µM (CAKI-1): 93%
- growth at 10 µM [7]: 92.2%
- growth at 10 µM (HT-29 [8]): 64.5%
- growth at 10 µM (HOP-62 [9]): 83.3%
- growth at 10 µM [10]: 72.4%
- growth at 10 µM (T47D): 69%
- growth at 10 µM (MDA-MB-435): 92.1%
- growth at 10 µM (M14 [11]): 93.3%
- growth at 10 µM (786-0): 89.1%
- growth at 10 µM (KM12): 73.1%
- growth at 10 µM (Malme-3M): 98.6%

Structure (SMILES): C=CCn1c(C)nc2ccc(Nc3nc(Nc4ccc5nc(C)n(CC=C)c5c4)c4ccccc4n3)cc21
- growth at 10 µM [1]: -52%
- GI50 (HOP-62 [12]): 1630 nM
- TGI (HOP-62 [12]): 2980 nM
- growth at 0.1 µM [13]: 91%
- growth at 10 µM (NCI-H522 [2]): -94%
- growth at 10 µM (NCI-H460 [3]): -74%
- growth at 100 µM (UACC-62): -65%
- growth at 10 µM (K562): -49%
- growth at 10 µM (HL-60(TB) [4]): -71%
- growth at 10 µM (MOLT-4 [5]): -45.5%
- growth at 100 µM (MOLT-4 [14]): 2%
- growth at 10 µM [6]: -100%
- growth at 0.01 µM [15]: 84%
- growth at 10 µM (DU-145): -98%
- growth at 10 µM (SW-620): -91%
- growth at 10 µM (A549): -90%
- growth at 0.1 µM (MDA-MB-231): 87%
- growth at 0.01 µM (A498 [16]): 69%
- growth at 0.1 µM (M14 [17]): 94%
- growth at 0.01 µM (SR): 97%
- growth at 10 µM (SNB-19): -69%
- growth at 10 µM (CAKI-1): -81%
- growth at 1 µM (MOLT-4 [18]): 73%
- growth at 100 µM (MDA-MB-468): -33%
- growth at 10 µM [7]: -98%
- growth at 0.1 µM (A498 [19]): 64%
- growth at 0.01 µM (HT-29 [20]): 102%
- GI50 (NCI-H460 [21]): 1890 nM
- TGI (NCI-H460 [21]): 3700 nM
- growth at 0.01 µM (HOP-92): 92%
- growth at 10 µM (HT-29 [8]): -96.7%
- growth at 10 µM (HOP-62 [9]): -100%
- growth at 0.01 µM (HL-60(TB) [22]): 97%
- growth at 10 µM [10]: -91.4%
- growth at 1 µM (HL-60(TB) [23]): 95%
- growth at 10 µM (T47D): -91%
- growth at 10 µM (MDA-MB-435): -84%
- GI50 (NCI-H522 [24]): 2030 nM
- TGI (NCI-H522 [24]): 3530 nM
- growth at 10 µM (M14 [11]): -95%
- growth at 10 µM (786-0): -93.8%
- growth at 10 µM (KM12): -94%
- growth at 10 µM (Malme-3M): -78.9%

Structure (SMILES): C=CCn1c(C)nc2cc(Nc3nc(Nc4ccc5nc(C)n(CC=C)c5c4)nc4ccccc34)ccc21
- growth at 10 µM [1]: 100%
- growth at 10 µM (NCI-H522 [2]): 99.1%
- growth at 10 µM (NCI-H460 [3]): 117%
- growth at 10 µM (K562): 102%
- growth at 10 µM (HL-60(TB) [4]): 84%
- growth at 10 µM (MOLT-4 [5]): 101%
- growth at 10 µM [6]: 99.5%
- growth at 10 µM (DU-145): 115%
- growth at 10 µM (SW-620): 106%
- growth at 10 µM (A549): 96.3%
- growth at 10 µM (SNB-19): 100%
- growth at 10 µM (CAKI-1): 101%
- growth at 10 µM [7]: 107%
- growth at 10 µM (HT-29 [8]): 103%
- growth at 10 µM (HOP-62 [9]): 101%
- growth at 10 µM [10]: 89.3%
- growth at 10 µM (T47D): 96%
- growth at 10 µM (MDA-MB-435): 108%
- growth at 10 µM (M14 [11]): 109%
- growth at 10 µM (786-0): 113%
- growth at 10 µM (KM12): 109%
- growth at 10 µM (Malme-3M): 94.5%
